# Entries after “also recorded” stand apart in the source; their conditions may differ. Residues, ends and D or L forms follow the SMILES beside them. Groups on a side chain read outwards from the residue. *: point of attachment. 5FAM = O=C1OC2(c3ccc(O)cc3Oc3cc(O)ccc32)c2ccc(C(=O)*)cc21; Ahx = NCCCCCC(=O)O
# Legend:
# [1] = test system: SSP-25 cells; assay: xCELLigence cell death assay; assay type: cell-based; conditions: for rescue of compound 10-induced cell death by ruthenium red: 40 μM Ruthenium red added to cells treated with 10 μM compound 10
# Procedure: Further, singly-dosed cells continued to recover, which indicated reduced general cytotoxicity of the compound in the media or the lysed cells.
# To optimize cellular activity, compounds were tested in xCELLigence cell death assays against various cell lines. An example of the workflow used is shown using A549 cells and compound 10 in FIGS. 15 and 16. […] Data from xCELLigence traces at different compound concentrations from FIG. 15 was then used to generate a dose-response curve, which was then subjected to nonlinear regression using a sigmoidal dose-response model to generate IC50s and R2 values for cell death for each compound/cell line combination (FIG. 16).
# To further investigate the hypothesis that peptide binding to RAD51 in cells causes cell death via increases in intracellular free calcium levels, compound 10 alone and in combination with two different intracellular calcium chelators (1,2-Bis(2-aminophenoxy) ethane-N,N,N′,N′-tetraacetic acid tetrakis(acetoxymethyl ester) aka “BAPTA-AM”, and ammoniated ruthenium oxychloride aka “ruthenium red”) was tested in an xCELLigence™ cell death assay as in Example 3. The intracellular calcium chelators alone were also evaluated on the cells.
# [2] = test system: SSP-25 cells; assay: MTT growth inhibition assay; assay type: cell-based; conditions: 5 μM or 10 μM, 48 hours of cell growth, vs water mock
# Procedure: To assess the growth inhibitory properties of compounds disclosed herein, 5 μM or 10 μM of compounds 1, 3, and 5 were tested against a water mock treatment for growth inhibition of SSP-25 cells using an MTT assay after 48 hours of cell growth.
# [3] = test system: HeLa; conditions: compound 5 at 5 μM, compound 1 at 10 μM
# Procedure: (§1) To assess the specificity of compounds disclosed herein in targeting cancers with mutations in the BRCA2 pathway, compounds 1 and 5 were tested against HeLa (human cervical cancer) and SSP-25 cells (cholangiocarcinoma cell line) (FIG. 2). To measure killing of the cells by compounds 1 and 5, a cell stain (CytoTox Red™) was used, which can be measured spectrophotometrically, and is indicative of cell viability. First, 5,000 cells were incubated in 96-well culture plates overnight. The media (RPMI with 10% FBS) was removed and replaced with serum free media (RPMI) containing 125 nM CytoTox Red™. FITC-labeled compounds 5 and 1 were added to concentrations of 5 μM and 10 μM, respectively, and imaging commenced using an IncuCyte™ instrument using 15 minute time points. 2× serum-containing media was added after one hour incubation, and the cells were imaged every 2 hours. To detect CytoTox Red™ the following parameters were used: Excitation Wavelength: 585 nm; Passband: [565,605] nm and Emission Wavelength: 635 nm; Passband: [625, 705] nm. To detect compounds 5 and 1 using the FITC label, the following parameters were used: Excitation Wavelength: 460 nm; Passband: [440,480] nm and Emission Wavelength: 524 nm; Passband: [504,544] nm was used.
# [4] = test system: SSP-25 cells; conditions: compound 5 at 5 μM, compound 1 at 10 μM; vs PBS
# Procedure: as §1
# [5] = test system: GM08505, Blm cells
# Procedure: To assess the ability of compounds disclosed herein to rescue the drug-sensitivity of Bloom's Syndrome patient cells, GM08505, Blm cells were treated with PBS, 5 μM etoposide, or 5 μM etoposide and 10 μM compound 5.
# [6] = molecular target: T1, RAD51 (Homo sapiens, UniProt Q06609); assay: microscale thermophoresis; assay type: binding; conditions: 0 vs 1 mM Ca2+
# T1 sequence (Q06609 1-339): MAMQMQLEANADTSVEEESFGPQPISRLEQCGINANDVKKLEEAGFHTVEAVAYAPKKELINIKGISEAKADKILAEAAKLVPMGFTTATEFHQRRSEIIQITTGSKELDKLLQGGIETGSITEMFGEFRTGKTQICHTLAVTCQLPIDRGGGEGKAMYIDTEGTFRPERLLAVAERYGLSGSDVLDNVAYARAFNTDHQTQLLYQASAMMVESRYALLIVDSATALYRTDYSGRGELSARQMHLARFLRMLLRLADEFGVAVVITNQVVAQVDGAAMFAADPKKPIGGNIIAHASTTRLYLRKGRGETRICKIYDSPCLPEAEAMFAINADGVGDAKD
# Procedure: To test the interaction between calcium binding and peptide binding to RAD51, the Kds of active (Compound 5, 10) peptides for RAD51 were tested by a microscale thermophoresis assay, and the Kd of compound 5 was additionally performed in the presence of 1 mM calcium.
# Microscale thermophoresis was performed as previously described (see, for e.g. Jerabek-Willemsen, M., Wienken, C. J., Braun, D., Baaske, P. & Duhr, S. Molecular interaction studies using microscale thermophoresis. Assay Drug Dev. Technol. 9, 342-353 (2011)). The affinity of the Compound was measured using the Monolith NT.115 from Nanotemper Technologies. Rad51 was fluorescently labelled according to the manufacturer's protocol and the labelled protein used for each assay was about 500 nM. A solution of unlabelled peptide was diluted for appropriate serial concentration gradient. The samples were loaded into silica capillaries (Polymicro Technologies). Measurements were performed at room temperature in buffer containing PBS, 0.1% Tween 20, 0.5 mM ATP, 2.5 uM ssDNA, with 1 mM CaCl2 (when mentioned). Measurements were done using 12% LED power and 60% MST power. The assays were repeated three times for each affinity measurement. Data analyses were performed using Nanotemper Analysis software and OriginPro 8.0 software provided by the manufacturer.
# [7] = test system: PC3 cells; assay: xCELLigence cell death assay; conditions: 60 μM at 24 hours
# Procedure: First, 5,000 PC3 cells were plated, and adherence and growth was measured for 24 hours using live measurements of current impedance through the plate using the xCELLigence™ instrument. […] This was repeated again at the 124 hour mark.
# [8] = test system: SSP-25 cells; assay: growth assay (percent confluence); assay type: cell-based; conditions: 5 μM or 10 μM, compared to PBS
# Procedure: A growth assay was performed using SSP-25 cells with 5 μM or 10 μM of compound 1. […] The experimental protocol described in Example 3 was used for the growth assay.
# The same growth assay was repeated using 10 μM of compound 1 and compound 2. Compound 2 contains a single substitution within the core consensus sequence, which interrupts the binding of compound 2 to RAD51.
compound,measurement,setting,value
"CC(=O)OCOC(=O)CN(CC(=O)OCOC(C)=O)c1ccccc1OCCOc1ccccc1N(CC(=O)OCOC(C)=O)CC(=O)OCOC(C)=O [BAPTA-AM, 1,2-Bis(2-aminophenoxy) ethane-N,N,N′,N′-tetraacetic acid tetrakis(acetoxymethyl ester)]",rescue of compound 10-induced cell death by BAPTA-AM,[1]; 10 μM BAPTA-AM added to cells treated with 10 μM compound 10,able to counteract the cell-death inducing effects of compound 10; also recorded: rescues cell death relative to compound alone; also recorded: rescues cell death due to compound 10
CSCC[C@H](NC(=O)[C@H](CCCNC(=N)N)NC(=O)[C@H](CO)NC(=O)[C@@H](NC(=O)[C@H](CCCNC(=N)N)NC(=O)[C@H](CC(C)C)NC(=O)[C@H](CCCNC(=N)N)NC(=O)[C@@H](NC(=O)CNC(=O)[C@H](CC(C)C)NC(=O)[C@H](CCCNC(=N)N)NC(=O)[C@H](CCCCN)NC(=O)[C@H](CCCNC(=N)N)NC(=O)[C@H](CCCNC(=N)N)NC(=O)[C@H](CCCNC(=N)N)NC(=O)[C@H](CCCNC(=N)N)NC(=O)[C@H](CCCNC(=N)N)NC(=O)[C@H](CCCNC(=N)N)NC(=O)[C@H](CCCNC(=N)N)NC(=O)[C@H](CCCCNC(=O)CCCCCNC(=O)c1ccc2c(c1)C(=O)OC21c2ccc(O)cc2Oc2cc(O)ccc21)NC(C)=O)C(C)C)C(C)C)C(=O)N[C@@H](CC(C)C)C(N)=O [Compound 5] (Ac-K([Ahx-5FAM])RRRRRRRKRLGVRLRVSRML-NH2),growth inhibition of SSP-25 cells,[2],"strongest inhibitory effect, regardless of concentration"
same,efficacy in acidified media,[1]; 30 μM added at 72 hours to previously untreated cells,efficacy of compound 5 in acidified media
same,cell death kinetics (cell index),[1]; 30 μM compound 5 added at 20 hours,acute cell death kinetics
same,cell death (CytoTox Red staining) in HeLa cells,[3],little cell death is generated in the HeLa cells compared to the SSP-25 cells
same,cell death (CytoTox Red staining) in SSP-25 cells,[4],greatest efficacy in the SSP-25 cells
same,rescue of etoposide-induced growth defect of Blm cells (percent confluence),"[5]; 5 μM etoposide and 10 μM compound 5, comparable to PBS",able to rescue the hypersensitivity of a Bloom's cell line (GM08505) to a genotoxic stress (etoposide); also recorded: suppression of cell growth defects induced by etoposide
same,increase of Kd when calcium (Ca2+) raised from 0 to 1 mM,[6],3.4 fold
same,cell death of PC3 cells (cell index),[7],acute cell death kinetics; also recorded: highly potent
same,PC3 cells eliminated,"[7]; 100 μM more at 84 and 124 hours, compared to compound 6 and PBS controls",over 75%
"N.N.N.N.N.N.N.N.N.N.N.N.N.N.[Cl-].[Cl-].[Cl-].[Cl-].[Cl-].[Cl-].[O-2].[O-2].[Ru+3].[Ru+3].[Ru+4] [Ruthenium red, ammoniated ruthenium oxychloride]",rescue of compound 10-induced cell death by ruthenium red,[1],able to counteract the cell-death inducing effects of compound 10; also recorded: rescues cell death relative to compound alone
same,rescue of compound 10-induced cell death by ruthenium red,[1]; listed as ruthenium red,rescues cell death due to compound 10
"COc1cc([C@@H]2c3cc4c(cc3[C@@H](O[C@@H]3O[C@@H]5CO[C@@H](C)O[C@H]5[C@H](O)[C@H]3O)[C@H]3COC(=O)[C@H]23)OCO4)cc(OC)c1O [etoposide, reference compound]",growth of Blm cells (percent confluence),[5]; 5 μM etoposide alone,growth of the Blm cells was affected
Ac-K(C6_5FAM)-QSLRLGLSRLARVKRLHPGARRRRRRRR-NH2 (Ac-K(C6_5FAM)QSLRLGLSRLARVKRLHPGARRRRRRRR-NH2) [Compound 1],growth inhibition of SSP-25 cells,[2],dose-dependent effect on the growth of SSP-25
same,percent confluence of SSP-25 cells,[8],decreased the percent confluence of the cells
KQSLRLGLSRLARVKRLHPGARRRRRRRR [Compound 3],growth inhibition of SSP-25 cells,[2],dose-dependent effect on the growth of SSP-25

# — patent publication US12214008B2, “Protein interfaces” (SyntheX, Inc., priority 2016, dated 2025)
